These results are taken from patent US9499519B2, “Fused pyrimidine compounds and use thereof” (Medivation Technologies, Inc., priority 2012, dated 2016).

SMILES strings stand for the structures.

In test [1] the target is T1, AXL (Homo sapiens, UniProt P30530).
T1 sequence (P30530 26-894): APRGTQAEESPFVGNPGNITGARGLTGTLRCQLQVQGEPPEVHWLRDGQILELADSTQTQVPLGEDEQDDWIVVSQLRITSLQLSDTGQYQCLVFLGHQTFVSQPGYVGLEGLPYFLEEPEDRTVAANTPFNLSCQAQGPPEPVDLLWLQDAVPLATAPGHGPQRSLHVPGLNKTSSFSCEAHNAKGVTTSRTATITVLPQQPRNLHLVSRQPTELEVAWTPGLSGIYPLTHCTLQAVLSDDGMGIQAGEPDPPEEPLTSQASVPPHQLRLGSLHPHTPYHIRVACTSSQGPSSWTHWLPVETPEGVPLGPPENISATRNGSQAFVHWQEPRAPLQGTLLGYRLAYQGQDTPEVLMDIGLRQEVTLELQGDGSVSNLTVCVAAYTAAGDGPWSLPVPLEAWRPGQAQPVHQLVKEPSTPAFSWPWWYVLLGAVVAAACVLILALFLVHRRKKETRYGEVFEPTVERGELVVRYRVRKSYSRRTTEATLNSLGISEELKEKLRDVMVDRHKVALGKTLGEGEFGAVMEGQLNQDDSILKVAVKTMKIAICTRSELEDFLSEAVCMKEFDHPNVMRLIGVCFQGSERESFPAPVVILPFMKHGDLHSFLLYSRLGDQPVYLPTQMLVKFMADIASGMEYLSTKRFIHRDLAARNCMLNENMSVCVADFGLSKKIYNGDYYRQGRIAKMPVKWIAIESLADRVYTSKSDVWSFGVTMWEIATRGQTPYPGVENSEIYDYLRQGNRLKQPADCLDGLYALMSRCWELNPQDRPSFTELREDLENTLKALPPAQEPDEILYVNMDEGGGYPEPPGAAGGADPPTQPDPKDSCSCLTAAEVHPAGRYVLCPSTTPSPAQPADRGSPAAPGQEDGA
Put plainly: HotSpot kinase assay: AXL. The following applies: 100 nM compound, read-out: % Enzyme Inhibition @ 100 nM AXL. The test is classed as biochemical. As to the method:
(§1) Kinase assays were performed using additional compounds against a panel of 4 kinases: AXL; c-Met; c-Mer; and Trk C. Each compound was tested at a concentration of […] in single duplicate mode against the 4 kinases. Compounds were prepared as 10 mM stock solutions in DMSO prior to use in the assay. […] IC50 values and curve fits were obtained using Prism (GraphPad Software).
(§2) The screening was performed using the “HotSpot” assay platform. The assay measures the conversion of a peptide substrate to ^33P-labelled phosphorylated product. Briefly, specific kinase/substrate pairs along with required cofactors were prepared in reaction buffer. Specifically, the substrate was prepared in reaction buffer (20 mM Hepes, pH 7.5; 10 mM MgCl2; 1 mM EGTA; 0.02% Brij35; 0.02 mg/mL BSA; 0.1 mM Na3VO4; 2 mM DTT; 1% DMSO), followed by delivery of any required cofactor to the resulting substrate solution. The corresponding kinase was delivered into the substrate solution and the reaction mixture was mixed gently. Compound was delivered into the reaction mixture, followed 15-20 minutes later by addition of a mixture of ATP (Sigma, St. Louis Mo.) and ^33P ATP (specific activity 0.01 μCi/μL final; Perkin Elmer, Waltham, Mass.) to a final concentration of 10 μM-30 μM to initiate the reaction. […] The percent of enzyme inhibition was calculated based on the percent of remaining kinase activity.

Test [2] deals with c-Met (Homo sapiens, UniProt P08581). Put plainly: HotSpot kinase assay: c-Met. The test is classed as biochemical. The following applies: 100 nM compound, read-out: % Enzyme Inhibition @ 100 nM c-MET. Here is the method: as §1, §2
Chain of c-Met (P08581 25-1390): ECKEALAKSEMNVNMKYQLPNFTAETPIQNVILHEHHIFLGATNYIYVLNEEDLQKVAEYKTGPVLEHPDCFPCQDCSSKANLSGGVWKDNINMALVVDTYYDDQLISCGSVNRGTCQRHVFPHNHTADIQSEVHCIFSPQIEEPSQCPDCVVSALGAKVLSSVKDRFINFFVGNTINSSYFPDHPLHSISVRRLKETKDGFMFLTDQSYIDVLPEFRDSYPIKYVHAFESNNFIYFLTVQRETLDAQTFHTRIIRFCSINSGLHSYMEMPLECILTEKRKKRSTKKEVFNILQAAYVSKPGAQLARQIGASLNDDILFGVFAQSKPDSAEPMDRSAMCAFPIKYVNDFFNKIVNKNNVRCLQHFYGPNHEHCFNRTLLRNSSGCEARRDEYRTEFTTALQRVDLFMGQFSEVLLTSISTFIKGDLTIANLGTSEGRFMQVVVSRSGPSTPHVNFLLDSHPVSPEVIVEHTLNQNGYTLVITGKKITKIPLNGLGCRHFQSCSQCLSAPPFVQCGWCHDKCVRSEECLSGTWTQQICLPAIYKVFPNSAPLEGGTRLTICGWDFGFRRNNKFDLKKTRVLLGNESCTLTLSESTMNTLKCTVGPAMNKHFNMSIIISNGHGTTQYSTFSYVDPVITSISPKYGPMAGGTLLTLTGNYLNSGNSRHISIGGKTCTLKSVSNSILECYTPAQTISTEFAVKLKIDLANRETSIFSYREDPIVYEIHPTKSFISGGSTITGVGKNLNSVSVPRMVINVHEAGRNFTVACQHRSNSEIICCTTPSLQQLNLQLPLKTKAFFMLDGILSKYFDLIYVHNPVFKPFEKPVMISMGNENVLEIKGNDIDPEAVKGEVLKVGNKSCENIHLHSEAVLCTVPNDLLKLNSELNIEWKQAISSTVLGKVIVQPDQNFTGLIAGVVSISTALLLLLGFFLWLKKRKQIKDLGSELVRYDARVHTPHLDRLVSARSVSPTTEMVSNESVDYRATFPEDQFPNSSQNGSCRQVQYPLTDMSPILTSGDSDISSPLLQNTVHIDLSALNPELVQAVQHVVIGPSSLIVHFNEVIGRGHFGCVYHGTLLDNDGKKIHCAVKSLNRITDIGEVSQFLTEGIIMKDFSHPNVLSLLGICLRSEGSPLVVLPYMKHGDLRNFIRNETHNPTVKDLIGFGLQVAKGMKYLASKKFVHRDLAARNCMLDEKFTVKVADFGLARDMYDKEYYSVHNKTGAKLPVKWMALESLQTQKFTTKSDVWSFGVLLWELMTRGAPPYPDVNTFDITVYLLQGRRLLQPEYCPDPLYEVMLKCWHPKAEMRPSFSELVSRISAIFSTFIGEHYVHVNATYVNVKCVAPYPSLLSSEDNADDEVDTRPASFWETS

As usually defined, the inhibition is how much of the control response was suppressed. In the case of `CC(C)c1cc(Nc2nc(N3CCCC3C(=O)N(C)C)nc3c2CCC3)n[nH]1` (single isomer, unassigned) [Compound 20b, 1-(4-(5-isopropyl-1H-pyrazol-3-ylamino)-6,7-dihydro-5H-cyclopenta[d]pyrimidin-2-yl)-N,N-dimethylpyrrolidine-2-carboxamide], the inhibition at 0.1 µM in test [1] and in test [2] was less than 39% each time.
